According to patent US20240158446A1, “CYCLIC COMPOUND HAVING SELECTIVE INHIBITORY ACTION ON KRAS OVER HRAS AND NRAS” (CHUGAI SEIYAKU KABUSHIKI KAISHA, priority 2021, published 2024):

Key:
[1] = biological target: GDP-bound HRAS wild-type protein (Homo sapiens, UniProt P01112); assay: Binding to HRAS by surface plasmon resonance (SPR), Single Cycle Kinetics; conditions: SPR KD ratio HRAS/KRAS, class symbols
[2] = biological target: GDP-bound NRAS wild-type protein (Homo sapiens, UniProt P01111); assay: Binding to NRAS by surface plasmon resonance (SPR), Single Cycle Kinetics; conditions: SPR KD ratio NRAS/KRAS, class symbols
Sequence of GDP-bound NRAS wild-type protein (P01111 whole entry): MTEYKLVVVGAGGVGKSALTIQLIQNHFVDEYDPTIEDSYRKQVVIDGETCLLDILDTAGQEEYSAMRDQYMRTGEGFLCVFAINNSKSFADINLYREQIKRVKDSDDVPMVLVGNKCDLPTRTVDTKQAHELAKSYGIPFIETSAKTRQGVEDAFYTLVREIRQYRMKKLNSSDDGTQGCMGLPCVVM

Sequence of GDP-bound HRAS wild-type protein (P01112 whole entry): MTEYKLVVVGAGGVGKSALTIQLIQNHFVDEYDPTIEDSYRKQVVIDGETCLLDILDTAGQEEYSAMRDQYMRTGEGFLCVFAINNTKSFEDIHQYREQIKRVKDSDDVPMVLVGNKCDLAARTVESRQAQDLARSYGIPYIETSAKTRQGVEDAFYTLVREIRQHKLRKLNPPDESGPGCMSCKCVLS

| Structure (SMILES) | HRAS/KRAS (ratio of KD value with respect to GDP-bound HRAS wild-type protein to KD value with respect to KRAS) [1] | NRAS/KRAS (ratio of KD value with respect to GDP-bound NRAS wild-type protein to KD value with respect to KRAS) [2] |
| --- | --- | --- |
| CCO[C@@H]1C[C@H]2C(=O)NC3(CC(C)(C)C3)C(=O)N(C)[C@@H](C3CCCC3)C(=O)N(C)[C@H](C(=O)N(C)CC)CC(=O)N(C)[C@H]3CC/C=C/c4ccc(cc4)C[C@@H](C(=O)N(C)CC(=O)N[C@@H](CCc4ccc(Cl)c(Cl)c4)C(=O)N2C1)N1CC/C=C\C[C@@H](C1=O)N(C)C(=O)CN(C1CC1)C(=O)[C@H]([C@@H](C)CC)NC3=O [PP2598] | A (a compound having 10 or more and less than 20 is denoted as A) | A (a compound having 10 or more and less than 20 is denoted as A) |
| CCO[C@@H]1C[C@H]2C(=O)NC3(CCC3)C(=O)N(C)[C@@H](C(CC)CC)C(=O)N(C)[C@H](C(=O)N(C)C)CC(=O)N(C)[C@H]3CCCC/C=C/c4ccc(cc4)C[C@@H](C(=O)N(C)CC(=O)N[C@@H](CCc4ccc(Cl)c(Cl)c4)C(=O)N2C1)N1CC/C=C\C[C@@H](C1=O)N(C)C(=O)CN(C1CC1)C(=O)[C@H]([C@@H](C)CC)NC3=O [PP2605] | A (a compound having 10 or more and less than 20 is denoted as A) | AA (a compound having 20 or more is denoted as AA) |
| CCO[C@@H]1C[C@H]2C(=O)NC3(CCC3)C(=O)N(C)[C@@H](C3CCCC3)C(=O)N(C)[C@H](C(=O)N(C)C)CC(=O)N(C)[C@@H](CC3CCCC3)C(=O)N[C@@H]([C@@H](C)CC)C(=O)N(C)CC(=O)N(C)[C@H]3C/C=C\CCN(C3=O)[C@@H](Cc3ccc(C)cc3)C(=O)N(C)CC(=O)N[C@@H](CCc3ccc(C(F)(F)F)c(CC)c3)C(=O)N2C1 [PP2672] | B (a compound having 3 or more and less than 10 is denoted as B) | B (a compound having 3 or more and less than 10 is denoted as B) |
| CCO[C@@H]1C[C@H]2C(=O)NC3(CCC3)C(=O)N(C)[C@@H](C3CCCC3)C(=O)N(C)[C@H](C(=O)N(C)C)CC(=O)N(C)[C@@H](CC3CCCC3)C(=O)N[C@@H]([C@@H](C)CC)C(=O)N(C)CC(=O)N(C)[C@H]3C/C=C\CCN(C3=O)[C@@H](Cc3ccc(C)cc3)C(=O)N(C)CC(=O)N[C@@H](CCc3ccc(C4CC4)c(Cl)c3)C(=O)N2C1 [PP2684] | A (a compound having 10 or more and less than 20 is denoted as A) | A (a compound having 10 or more and less than 20 is denoted as A) |
| CCO[C@@H]1C[C@H]2C(=O)NC3(CCC3)C(=O)N(C)[C@@H](C3CCCC3)C(=O)N(C)[C@H](C(=O)N(C)C)CC(=O)N(C)[C@@H](CC3CCCC3)C(=O)N[C@@H]([C@@H](C)CC)C(=O)N(C)CC(=O)N(C)[C@H]3C/C=C\CCN(C3=O)[C@@H](Cc3ccc(C)cc3)C(=O)N(C)CC(=O)N[C@@H](CCc3ccc(CC)c(F)c3)C(=O)N2C1 [PP2686] | A (a compound having 10 or more and less than 20 is denoted as A) | A (a compound having 10 or more and less than 20 is denoted as A) |
| CCO[C@@H]1C[C@H]2C(=O)NC3(CC(C)(C)C3)C(=O)N(C)[C@@H](C3CCCC3)C(=O)N(C)[C@H](C(=O)N(C)C)CC(=O)N(C)[C@@H](CC(C)C)C(=O)N[C@@H]([C@@H](C)CC)C(=O)N(C)CC(=O)N(C)[C@H]3C/C=C\CCN(C3=O)[C@@H](Cc3ccc(C)cc3F)C(=O)N(C)CC(=O)N[C@@H](CCc3ccc(C(F)(F)F)c(OC)c3)C(=O)N2C1 [PP2688] | B (a compound having 3 or more and less than 10 is denoted as B) | A (a compound having 10 or more and less than 20 is denoted as A) |
